Experimental findings from PMC12751012, “Nanoscale Direct-to-Biology Optimization and Structural Insights into Selective S. aureus TrmD Inhibitors” (Journal of Medicinal Chemistry, 2025) are described below.

For data set [1], the system named is S. aureus RN4220. The data set can be described thus: Minimal bactericidal concentration (MBC) determination, CFU/mL. The class given is cell-based, Staphylococcus aureus. As to conditions: 24 h static incubation. The protocol: To determine the minimal bactericidal concentration of the substances, bacterial cultures were prepared as in the bacterial growth inhibition assay but incubated statically at 37 °C. A serial dilution of the initial culture was made and plated on a TSB agar plate to determine the CFU/mL of the original culture. After 24 h, the cultures were diluted again and plated. Bacterial colonies were counted, and the CFU/mL was calculated. The experiment was performed in n = 3 biological replicates. Data evaluation was done using GraphPad Prism. One-way ANOVA with Dunnett’s multiple comparisons test was used for statistical analysis, and all samples were compared to the starting CFU/mL.

Data set [2] has as its system S. aureus RN4220 lysate. The data set can be described thus: Bacterial lysate carbamate cleavage assay (LC/MS). The class given is in vitro ADME, Staphylococcus aureus. As to conditions: 400 μM, 16 h; for cleavage in S. aureus lysate: LC/MS; for degree of carbamate cleavage to 8h: S. aureus lysate. The method, then: An overnight culture of S. aureus RN4220 was set up in TSB medium (BD Bacto Tryptic Soy Broth). The next day, a 150 mL day culture was started at an initial OD600 of 0.1. The culture was incubated at 200 rpm shaking at 37 °C. The bacteria were harvested after 3 h and 40 min (OD600 = 3.30). A 1 mL aliquot was retained to determine cell number. 150 mL of the culture was centrifuged at 4000 rpm for 10 min at 4 °C. The resulting pellet was resuspended in 10 mL of JB Lysis Buffer (0.1% Triton X-100, 20 mM Tris-HCl, 150 mM KCl, 1 mM MgCl2, 1 mM DTT, and protease inhibitors) and transferred to FastPrep tubes. Cells were mechanically lysed (2 × 30 s, 6.5 m/s) and cooled for 5 min on ice. The samples were centrifuged, and the supernatant was transferred to a new tube. Subsequently, it was centrifuged again at 5000 rpm for 30 min at 4 °C. The pellet was washed three times with 1× PBS, reducing the volume to 1 mL. Protein concentration was determined using the Pierce BCA Protein Assay Kit (Thermo Scientific). The final sample was frozen in liquid nitrogen and stored at −80 °C. 100 μL of this lysate was incubated with 8f–h (final concentration 400 μM, 2% DMSO) for 16 h at 30 °C. Afterward, 100 μL acetonitrile was added, and the samples were passed through a syringe filter. Ten μL of the samples were injected during LC/MS (Agilent 1100 system, LC/MSD trap) using an Agilent Poroshell 120 EC-C18 150 × 2.10 mm 4 μm column; mobile phase (gradient: acetonitrile/H2O, 0.1% formic acid). The LC/MS chromatograms and their corresponding mass spectra (base-peak) were analyzed using MestReNova (12.0.4) for prodrug deprotection products.

Data set [3] addresses T1, H. influenzae TrmD (Haemophilus influenzae, UniProt P43912).
T1 construct: host or cells: E. coli BL21
Briefly: Fluorescence polarization (FP) assay, tracer 3 (Cy5TPD), H. influenzae TrmD. The class given is binding. The method, then: Fluorescence polarization (FP) assays were performed as follows. The assays for H. influenzae TrmD have been described previously. All assays were conducted in technical triplicate using black 96-well half area plates. For the FP assays, a tracer (20 nM Cy5TPD for E. coli and H. influenzae TrmD, 10 nM tracer 4 for S. aureus TrmD) was mixed with the respective enzyme (2 μM E. coli TrmD, 2 μM H. influenzae TrmD, 500 nM S. aureus TrmD) in buffer (E. coli and H. influenzae TrmD: 50 mM HEPES, 500 mM NaCl, 5% Glycerol, pH 7.5, S. aureus TrmD: 40 mM Tris HCl, 100 mM NaCl, 10 mM MgCl2, 5% Glycerol, pH 7.5). The compounds were added in varying concentrations for K D-value determination. […] The Z-factor for tracer 4 was determined by measuring 48 replicates of the free tracer (positive controls, PC) and 48 replicates of a mixture of enzyme and tracer (negative controls, NC). The Z-factor is defined in terms of the means (μ) and standard deviations (σ) of the positive and negative controls and calculated as Z = 1–(3*(σnc + σpc)/(μnc–μpc)). […] Polarization values (mP) were determined from polarization-specific parallel and orthogonal fluorescence intensities. K D-values were calculated in GraphPad Prism 8.0.1 using the four-parameter Hill equation: y(% tracer bound) = bottom + ([ligand]-slope) × (top–bottom)/([ligand]-slope + K Dslope).

In data set [4] the target is T2, E. coli TrmD (Escherichia coli, UniProt P0A873).
T2 construct: made in house; host or cells: E. coli (the strain received with the pCA24N plasmid)
T2 sequence (P0A873 whole entry): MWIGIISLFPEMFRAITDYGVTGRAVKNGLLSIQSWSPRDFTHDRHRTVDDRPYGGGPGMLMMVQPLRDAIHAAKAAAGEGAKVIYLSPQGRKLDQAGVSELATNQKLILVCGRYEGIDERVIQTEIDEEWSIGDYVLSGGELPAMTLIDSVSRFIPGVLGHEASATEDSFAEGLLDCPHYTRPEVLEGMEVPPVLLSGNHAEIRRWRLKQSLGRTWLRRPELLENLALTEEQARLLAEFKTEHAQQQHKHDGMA
Briefly: Fluorescence polarization (FP) assay, tracer 3 (Cy5TPD), E. coli TrmD. The class given is binding. The protocol: Fluorescence polarization (FP) assays were performed as follows. The assays for H. influenzae TrmD have been described previously. All assays were conducted in technical triplicate using black 96-well half area plates. For the FP assays, a tracer (20 nM Cy5TPD for E. coli and H. influenzae TrmD, 10 nM tracer 4 for S. aureus TrmD) was mixed with the respective enzyme (2 μM E. coli TrmD, 2 μM H. influenzae TrmD, 500 nM S. aureus TrmD) in buffer (E. coli and H. influenzae TrmD: 50 mM HEPES, 500 mM NaCl, 5% Glycerol, pH 7.5, S. aureus TrmD: 40 mM Tris HCl, 100 mM NaCl, 10 mM MgCl2, 5% Glycerol, pH 7.5). The compounds were added in varying concentrations for K D-value determination. For K D-value determination of tracers, the enzyme concentration was varied, and no inhibitory compounds were added (DMSO < 0.5% for TrmDs). The Z-factor for tracer 4 was determined by measuring 48 replicates of the free tracer (positive controls, PC) and 48 replicates of a mixture of enzyme and tracer (negative controls, NC). The Z-factor is defined in terms of the means (μ) and standard deviations (σ) of the positive and negative controls and calculated as Z = 1–(3*(σnc + σpc)/(μnc–μpc)). Fluorescence polarization was measured using a Spark 10 M plate reader (Tecan) equipped with polarization filters and a monochromator setup (λex = 635 nm, λem = 680 nm). Polarization values (mP) were determined from polarization-specific parallel and orthogonal fluorescence intensities. K D-values were calculated in GraphPad Prism 8.0.1 using the four-parameter Hill equation: y(% tracer bound) = bottom + ([ligand]-slope) × (top–bottom)/([ligand]-slope + K Dslope).

Data set [5] relates to HEK293 cells. Briefly: Cell Titer Glo cell viability assay. The class given is cell-based, human. As to conditions: 48 h. The protocol:
(§1) Cell viability assays were conducted with HEK293 cells (ATCC) to investigate the compounds’ mammalian cytotoxicity. Cells were cultured according to standard protocols (DMEM, 10% FBS, 1× Penicillin/Streptomycin, 37 °C, 5% CO2). Cell viability was assessed using the Promega CellTiterGlo assay kit. Briefly, 1000 cells were seeded in white half a rea 96-well plates (Greiner) and incubated for 48 h with inhibitors from DMSO stocks (final: 0.1% DMSO) under standard cultivation conditions. Then, the cell titer reagent was added to each well according to the manufacturer’s protocols, and luminescence was measured using a Tecan Spark 10 M plate reader.

A short description of data set [6]: Cell Titer Glo cell viability assay. The class given is cell-based, human. As to conditions: human, HEK293 cells. The method, then: as §1
The mark [7] stands for this setting: read-out: KD H. influenzae TrmD (FP).

Where two headings read alike, the source gives them in different places.

T1 sequence (P43912 whole entry): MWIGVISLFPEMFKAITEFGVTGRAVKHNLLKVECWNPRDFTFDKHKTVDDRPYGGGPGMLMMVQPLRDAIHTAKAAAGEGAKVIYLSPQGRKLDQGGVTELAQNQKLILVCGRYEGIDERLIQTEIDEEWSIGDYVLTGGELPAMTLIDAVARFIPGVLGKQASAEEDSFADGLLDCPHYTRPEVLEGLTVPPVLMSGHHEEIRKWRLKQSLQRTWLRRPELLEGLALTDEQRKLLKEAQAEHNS

Regarding `CC(C)(C)OC(=O)/N=C(\NCCn1cc(-c2c[nH]c3nc[nH]c(=O)c23)nn1)NC(=O)OC(C)(C)C` [Compound 8g], the “effect on CFU/mL after 24 h (MBC determination)” value in data set [1] is “cell growth is not negatively affected”. Also, in data set [2], the “cleavage in S. aureus lysate” value is “readily cleaved” and the “degree of carbamate cleavage to 8h” value is around 30%.
Usually Kd stands for the constant that tells how readily two partners part at equilibrium. Regarding `NC(N)=NCCn1cc(-c2c[nH]c3nc[nH]c(=O)c23)nn1` [Compound 8h], the Kd in data set [3] (KD H. influenzae TrmD (FP)) and in data set [4] was above 30 µM throughout. In data set [5] (up to 100 μM), the “cell viability / mammalian cytotoxicity HEK293” value was “no mammalian cytotoxicity”.
One may read the CC50 as the concentration that lowers cell viability or growth by half. A higher CC50 goes with better tolerance by the cells. Take `N#Cc1cccc(Cn2cc(-c3c[nH]c4nc[nH]c(=O)c34)nn2)c1` [Compound 8b, 3-((4-(4-Oxo-4,7-dihydro-3H-pyrrolo[2,3-d]pyrimidin-5-yl)-1H-1,2,3-triazol-1-yl)methyl)benzonitrile]: the Kd in data set [3] (setting [7]) and in data set [4] was above 30 µM throughout. In data set [5] (at 100 μM), the “mammalian cytotoxicity HEK293” value is “Slight cytotoxic effects”. This compound also came in with a CC50 at 48 h in data set [6] above 100 µM.
In the case of `O=c1[nH]cnc2[nH]cc(-c3cn(CC4CCC5C(CC4)C5(F)F)nn3)c12` (stereo not shown) [Compound 8c, 5-(1-((8,8-Difluorobicyclo[5.1.0]octan-4-yl)methyl)-1H-1,2,3-triazol-4-yl)-3,7-dihydro-4H-pyrrolo[2,3-d]pyrimidin-4-one], the Kd in data set [3] (setting [7]) and in data set [4] was above 30 µM throughout. In data set [5] (at 100 μM), the “mammalian cytotoxicity HEK293” value is given as “Slight cytotoxic effects”. This compound registered a CC50 at 48 h in data set [6] above 100 µM.
As to `O=C(/N=C(\NCCn1cc(-c2c[nH]c3nc[nH]c(=O)c23)nn1)NC(=O)OCc1ccccc1)OCc1ccccc1` [Compound 8f], in data set [1], the “concentration from which growth (CFU/mL) is affected” value turned out to be 12.5 µM and the “effect on CFU/mL after 24 h (MBC determination)” value is on record as “bacteria were not killed completely”. Besides, in data set [2], the “cleavage in S. aureus lysate” value is on record as “readily cleaved” and the “degree of carbamate cleavage to 8h” value is listed as around 30%.
For `O=c1[nH]cnc2[nH]cc(-c3cn(Cc4ccc5ncccc5c4)nn3)c12` [Compound 8d, 5-(1-(Quinolin-6-ylmethyl)-1H-1,2,3-triazol-4-yl)-3,7-dihydro-4H-pyrrolo[2,3-d]pyrimidin-4-one], the Kd in data set [3] (setting [7]) and in data set [4] was above 30 µM in each case. The compound also displayed a CC50 at 48 h in data set [6] above 100 µM.
Take `N[C@@H]1CCC[C@@H]1Cn1cc(-c2c[nH]c3nc[nH]c(=O)c23)nn1` [Compound 8e, 5-(1-(((1R,2R)-2-Aminocyclopentyl)methyl)-1H-1,2,3-triazol-4-yl)-3,7-dihydro-4H-pyrrolo[2,3-d]pyrimidin-4-one]: the Kd in data set [3] (setting [7]) and in data set [4] was above 30 µM in each case. In data set [5] (at >10 μM), the “mammalian cytotoxicity HEK293” value is recorded as “Slight cytotoxic effects”. The compound also came in with a CC50 at 48 h in data set [6] above 100 µM.
